Where two headings read alike, the source gives them in different places.
Tests used:
NAMPT = NAMPT (Homo sapiens, UniProt P43490); experiment: NAMPT activity assay by fluorescence of NMN derivative (HTS system), IC50 determination; format: biochemical; set-up: His-tag; made in house; host or cells: E. coli BL21-CodonPlus (DE3)-RIL; details: for IC50: recombinant human NAMPT, read-out: NAMPT IC50
HepG2 cells = experiment: Sulforhodamine B protein staining (SRB) assay in HepG2; format: cell-based, human; details: Homo sapiens
Procedure: (§1) Sulfor hod am ine B p rotei n st ai ning (SRB) assay
(§2) Cell pr oliferat ion was eva lua ted by sul for hod amine B pr ot ein st aini ng (SRB) assa y10-12.
(§3) Briefly, cel ls were se ede d int o 96-well pl ates, cul tur ed overni ght , and trea ted with correspond ing com poun ds for 72 h. Cells were the n fixe d with 10% trichl or oa cetic aci d and st ained with sul for hoda mine B (Sigm a). Sul for hoda mine B in the cells was di sso lved in 10 mmol/L Tris-HCl and was measured at 515 nm usi ng a multiw ell spect ropho tometer (VERSA max, Mol ecul ar Devi ces, Sunnyva le, CA). The inhi bi tion rat e on cell pr olif eratio n was cal culated for each well as (A515contr ol cells-A 515tr eated cells)/A515contr ol cells×100 % (A515:
(§4) OD va lue at 515 nm ). The averag e IC50 va lue s were de termine d by Logit method from at leas t t hr eei nde pe nde nt test s.

A549 cells = experiment: SRB assay in A549; format: cell-based, human; details: Homo sapiens; A549, SRB, 10-fold concentration gradient; read-out: anti-proliferation IC50, initial screen
Procedure: as §1, §2, §3, §4

HCT116 cells = experiment: SRB assay in HCT116; format: cell-based; details: Homo sapiens, HCT-116; HCT116, SRB, 10-fold concentration gradient; read-out: anti-proliferation IC50, initial screen
Procedure: as §1, §2, §3, §4

[1] = HepG2, 72 h, HepG2, second test, 2-fold concentration gradient, 72 hours, read-out: SRB assay in HepG2: IC50
[2] = HepG2, HepG2, SRB, 10-fold concentration gradient, read-out: anti-proliferation IC50, initial screen

NAMPT, sequence (P43490 whole entry): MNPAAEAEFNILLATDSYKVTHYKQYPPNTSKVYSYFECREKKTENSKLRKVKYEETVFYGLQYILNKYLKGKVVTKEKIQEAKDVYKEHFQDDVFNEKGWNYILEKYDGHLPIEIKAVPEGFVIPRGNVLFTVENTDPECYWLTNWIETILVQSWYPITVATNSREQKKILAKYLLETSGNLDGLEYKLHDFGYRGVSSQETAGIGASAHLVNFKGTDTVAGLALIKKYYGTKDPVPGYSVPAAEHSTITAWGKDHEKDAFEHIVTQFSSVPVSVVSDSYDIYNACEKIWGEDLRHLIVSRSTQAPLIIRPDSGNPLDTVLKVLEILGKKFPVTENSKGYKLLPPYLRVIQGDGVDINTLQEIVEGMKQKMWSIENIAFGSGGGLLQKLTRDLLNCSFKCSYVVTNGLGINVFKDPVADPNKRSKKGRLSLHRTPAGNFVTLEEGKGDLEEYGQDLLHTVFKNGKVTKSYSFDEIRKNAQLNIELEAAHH

Compound	IC50 (NAMPT; mean ± s.e.) [µM]	other results
O=S(=O)(c1ccc(NC(=S)NCc2cccnc2)cc1)N1CCN(Cc2cccs2)CC1 [MS43]	0.0388 ± 0.0018	–
O=S(=O)(c1ccc(NC(=S)NCc2cccnc2)cc1)N1CCN(Cc2ccsc2)CC1 [MS41]	0.0225 ± 0.0008	–
O=S(=O)(c1ccc(NC(=S)NCc2cccnc2)cc1)N1CCCC1 [MS9, 1-(pyridin-3-ylmethyl)-3-(4-(pyrrolidin-1-ylsulfonyl)phenyl)thiourea]	0.0439 ± 0.0024	–
CCCCc1ccc(CN2CCN(S(=O)(=O)c3ccc(NC(=S)NCc4cccnc4)cc3)CC2)cc1 [MS36]	0.0798 ± 0.0061	–
O=S(=O)(c1ccc(NC(=S)NCc2cccnc2)cc1)N1CCOCC1 [MS11]	0.0217 ± 0.0008	–
Cc1ccccc1CN1CCN(S(=O)(=O)c2ccc(NC(=S)NCc3cccnc3)cc2)CC1 [MS27]	0.0124 ± 0.0009	–
CC(=O)N1CCN(S(=O)(=O)c2ccc(NC(=S)NCc3cccnc3)cc2)CC1 [MS5, 1-(4-((4-acetylpiperazin-1-yl)sulfonyl)phenyl)-3-(pyridin-3-ylmethyl)thiourea]	0.0405 ± 0.0018	–
O=S(=O)(c1ccc(NC(=S)NCc2cccnc2)cc1)N1CCN(Cc2cccnc2)CC1 [MS45]	0.0098 ± 0.0009	–
O=S(=O)(c1ccc(NC(=S)NCc2cccnc2)cc1)N1CCN(Cc2cccc(Cl)c2)CC1 [MS29]	0.0126 ± 0.0017	–
O=S(=O)(c1ccc(NC(=S)NCc2cccnc2)cc1)N1CCN(Cc2ccccc2F)CC1 [MS25]	0.0123 ± 0.002	–
O=S(=O)(c1ccc(NC(=S)NCc2cccnc2)cc1)N1CCN(Cc2cccc(F)c2)CC1 [MS24]	0.0089 ± 0.0005	–
O=S(=O)(NCc1ccccc1)c1ccc(NC(=S)NCc2cccnc2)cc1 [MS10]	0.0196 ± 0.0002	–
O=S(=O)(c1ccc(NC(=S)NCc2cccnc2)cc1)N1CCN(Cc2ccc3ccccc3c2)CC1 [MS33]	0.0295 ± 0.0008	IC50 (HepG2 cells; [1]): 8940 ± 450 nM; IC50 (HepG2 cells; [2]): < 5000 nM; IC50 (A549 cells): < 5000 nM; IC50 (HCT116 cells): < 5000 nM
O=S(=O)(c1ccc(NC(=S)NCc2cccnc2)cc1)N1CCN(Cc2ccncc2)CC1 [MS44]	0.0137 ± 0.0004	–
CCOC(=O)N=C(NCc1cccnc1)Nc1ccc(S(=O)(=O)N2CCCCC2)cc1 [MS12]	–	IC50 (NAMPT; values given in μM): > 166 µM
CCOC(=S)Nc1ccc(C(=O)N2CCCCC2)cc1 [MS20]	–	inhibition on NAMPT activity (in words) (NAMPT): no NAMPT inhibition; IC50 (NAMPT; values given in μM): > 150 µM
COc1cccc(/C=C2/N=C(c3ccc(NC(=O)c4cccs4)cc3)OC2=O)c1OC [compound 6443]	0.352 ± 0.045	–
CN1CCN(S(=O)(=O)c2ccc(NC(=S)NCc3cccnc3)cc2)CC1 [MS4]	0.0964 ± 0.0123	–
O=C1C[C@H](c2ccc(O)cc2)Oc2c1c(O)cc(O)c2[C@@H]1C(=O)c2c(O)cc(O)cc2O[C@H]1c1ccc(O)cc1 [compound 3909]	0.504 ± 0.124	–
Cc1cccc(CN2CCN(S(=O)(=O)c3ccc(NC(=S)NCc4cccnc4)cc3)CC2)c1 [MS28]	0.0168 ± 0.0015	IC50 (HepG2 cells; [1]): > 10000 nM; IC50 (HepG2 cells; [2]): < 5000 nM; IC50 (A549 cells): < 5000 nM; IC50 (HCT116 cells): < 5000 nM
O=S(=O)(c1ccc(NC(=S)NCc2cccnc2)cc1)N1CCNCC1 [MS2]	0.0845 ± 0.0075	–
Cc1ccc(CN2CCN(S(=O)(=O)c3ccc(NC(=S)NCc4cccnc4)cc3)CC2)cc1 [MS26]	0.0105 ± 0.002	–
O=S(=O)(Nc1ccccc1)c1ccc(NC(=S)NCc2cccnc2)cc1 [MS3]	0.022 ± 0.0046	–

Source: PMC4603696, “Discovery and characterization of novel small-molecule inhibitors targeting nicotinamide phosphoribosyltransferase” (Scientific Reports, 2015)
